Patent publication US20200368314A1, “PEPTIDES FOR TREATMENT AND PREVENTION OF NONALCOHOLIC FATTY LIVER DISEASE” (UNIVERSITE DE STRASBOURG, priority 2017, published 2020)
Entries after “also recorded” stand apart in the source; their conditions may differ.

What was measured:
[1] = tested on: DIO male mice; experiment: Oral glucose tolerance test, PATAD, metformin or both; settings: PATAD injection, metformin daily oral gavage
[2] = tested on: GLP-1; experiment: Circulating GLP-1 enzyme immunoassay; assay type: in vivo, mouse; settings: plasma; 11 days post single injection
Experimental: FIG. 4: PATAD stapled peptide sequence A reduces FATP2 expression level in the adipose tissue and increases GLP-1 circulating levels • (A)4 month-old male mice fed with a high fat/high glucose diet were used in this set of experiment.
Mice were injected with a single dose of either scramble peptide or PATAD stapled peptide sequence A. 11 days post injection, the mice were euthanized, and plasma was obtained and used for determination of circulating GLP1 from mice with the indicated treatment.
(§1) For GLP-1 measurement, a commercially available kit was used. RayBio Human/Mouse/Rat GLP-1 Enzyme Immunoassay Kit, EIA-GLP1, RayBiotech were used with the indicated procedures from the manufacturer. For the plasma albumin level determination, a commercially available kit was used.

[3] = tested on: ALT (Alanine Aminotransferase); experiment: Plasma ALT ELISA; assay type: in vivo, mouse; settings: 3 months after a single subcutaneous injection, n=4
Experimental: (§2) Mean values of both AST and ALT measured by ELISA approach in plasma of mice with the indicated treatment. n=4 samples per group.
(§3) Mice presented in FIG. 1 were euthanized and their plasma and organs were sampled for analysis. […] Cryosection of the livers were then stained with Adipored and DAPI to detect the level of lipid droplets. […] Hepatic function is assessed by two liver related strong biomarkers namely (AST (Aspartate Aminotransferase) and ALT (Alanine Aminotransferase)), whose levels increase proportionately with liver damage.
(§4) Plasma samples from the indicated mice were used to determine plasma content of either AST (aspartate aminotransferase) or […] (alanine aminotransferase) both robust indicators of liver damage were measured using commercially purchased ELISA kits. These parameters were determined according to manufacturer's procedure.
SEA207Mu (96 Tests): Enzyme-linked Immunosorbent Assay Kit For Alanine Aminotransferase (ALT), Cloud Clone Corp

[4] = tested on: FATP2 (Fatty acid transport protein 2); experiment: q-PCR expression of fatty acid transporters in adipose tissue; assay type: in vivo, mouse; settings: high fat/high glucose diet male mice; 11 days post single injection; GAPDH reference gene
Excerpt: n=4 animals per group, GAPDH was used as reference gene. There are 6 isoforms of FATP (FATP1-6 also known as SLC27A1-SLC27A6).
As PATAD subcutaneous injection relates to restoration of glucose absorption in the adipose tissue, the inventors measured the expression levels of all 6 isoforms for the FATPs (1-6) (Fatty acid transport protein 1-6) and the 4 isoforms of the FFAR (Free Fatty Acid Receptor) to assess any effect on these genes.
All peptides were initially dissolved in DMSO and then diluted in sterile saline solution at a concentration of 10 ng/μL. 2.5 μL of each peptide (stapled or scrambled) were mixed and then injected directly in the subcutaneaous adipose tissue in each mouse. […]
Total RNA was prepared from the different tissues and cells using a RiboPure™ kit (Catalog #: AM1924; Ambion) followed by a DNAse treatment with the TURBO DNA-Free™ (Catalog #: AM 1907; Ambion). RNA integrity was assessed by gel electrophoresis and RNA concentration by Eppendorf Biophotometer Plus with the Hellma® Tray Cell (Catalog #: 105.810-uvs; Hellma). […] Real-time quantitative polymerase chain reaction amplification was performed in a BioRad CFX96™ Real-Time System using the iQ™ SYBR® Green Supermix (Catalog #: 170-8886; BioRAd) and primer sets optimized for tested targets for SYBR Green-based real-time PCR for the real-time PCR. […]

[5] = tested on: AST (Aspartate Aminotransferase); experiment: Plasma AST ELISA; assay type: in vivo, mouse; settings: 3 months after a single subcutaneous injection, n=4
Experimental: as §2, §3, §4
SEB214Mu (96 Tests): Enzyme-linked Immunosorbent Assay Kit For Aspartate Aminotransferase (AST), Cloud Clone Corp

[6] = tested on: albumin; experiment: Plasma free albumin determination; assay type: in vivo, mouse; settings: 3 months after PATAD injection, N=5
Experimental: Lipids are transported bound to albumin and therefore plasma content of free albumin was measured as a readout of the effect of PATAD stapled peptide sequence A on circulating lipid profile 3 months after PATAD injection. N=5 mice per group.
A decreased circulating free albumin concentration has been observed when the mice were treated with PATAD stapled peptide sequence A indicating an increase in the levels of circulating lipids (FIG. 6).
as §1

Compound	onset of the effect on the GTT [1]	circulating GLP-1 concentration [2]	circulating ALT level [3]	FATP2 expression level in the adipose tissue [4]	circulating AST level [5]	circulating free albumin concentration [6]
CN(C)C(=N)N=C(N)N [metformin]	delayed by one week	–	–	–	–	–
VE CTM-[2-(4-pentenyl) alanine]-EK RVL A-[2-(4-pentenyl)alanine]-L DKP PFL TQL HS [PATAD stapled peptide sequence A]	–	restored high circulating levels; also recorded: restore GLP1 circulating levels back to lean controls	effective in reducing	decreased; also recorded: reduces	effective in reducing	decreased
